Earlier results, collected in paper PMC6844301, “Antibacterial activity of a Tribolium castaneum defensin in an in vitro infection model of Streptococcus pneumoniae” (Virulence, 2019).

System: multi-resistant clinical isolate serotype 19A (AMR)
Settings: strain description of the AMR isolate in methods; method or ref not given
Method: They were grown on sheep blood agar plates for 10 h and then transferred to Todd Hewitt Yeast (THY) medium (Carl Roth GmbH, Karlsruhe) at a density of 4 × 10^7 bacteria/ml (Ultraspec 10 Cell Densitometer, Amersham Biosciences). Upon reaching a density of 2 × 10^8 bacteria/ml, the bacterial suspension was diluted to 5 × 10^6 bacteria/ml. To esta ...

## CO/N=C(\C(=O)N[C@@H]1C(=O)N2C(C(=O)O)=C(COC(C)=O)CS[C@H]12)c1csc(N)n1 [Cefotaxim]
  resistant against (antibiotic concentration): 4 µg/mL

## CCC[C@@H]1C[C@@H](C(=O)N[C@@H]([C@H]2O[C@H](SC)[C@H](O)[C@@H](O)[C@H]2O)[C@H](C)Cl)N(C)C1 [Clindamycin]
  resistant against (antibiotic concentration): 256 µg/mL

## CN(C)[C@@H]1C(O)=C(C(N)=O)C(=O)[C@@]2(O)C(O)=C3C(=O)c4c(O)cccc4[C@@](C)(O)[C@H]3C[C@@H]12 [Tetracycline]
  resistant against (antibiotic concentration): 32 µg/mL

## Penicillin
  resistant against (antibiotic concentration): 8 µg/mL
